{
  "source": "paper PMC12120261",
  "about": "“Responsiveness of different MET tumour alterations to type I and type II MET inhibitors” (Clinical and Translational Medicine, 2025)",
  "origin": "cited, not measured here",
  "data": [
    {"tested_on": "MET G1163R", "design": "method as in PMID 31279006", "values": [
      {"compound": "CNC(=O)c1ccc(-c2cnc3ncc(Cc4ccc5ncccc5c4)n3n2)cc1F", "note": "[capmatinib]", "sensitivity of the solvent front G1163R mutation": "remains sensitive"},
      {"compound": "C[C@@H](Oc1cc(-c2cnn(C3CCNCC3)c2)cnc1N)c1c(Cl)ccc(F)c1Cl", "note": "[crizotinib, Crizotinib]", "sensitivity of the solvent front G1163R mutation": "conferring resistance"},
      {"compound": "C[C@@H](c1ccc2nccn2c1)n1nnc2ncc(-c3cnn(C)c3)nc21", "note": "[savolitinib]", "sensitivity of the solvent front G1163R mutation": "remains sensitive"}
    ]}
  ]
}
